Measured values taken from patent US8232271B2 (priority 2008, dated 2012).

Assays:
[1] = target: T1, HCV polymerase (NS5B570n-Con1) (Hepatitis C virus genotype 1b, UniProt Q9WMX2); assay: HCV NS5B RNA polymerase activity assay; assay type: biochemical, HCV Con1 strain
T1 construct: contains a 21 amino acid deletion at the C-terminus relative to the full-length HCV polymerase; 6-histidine (N); made in house; host or cells: E. coli BL21(DE) pLysS, plasmid pET17b
Procedure: The enzymatic activity of HCV polymerase (NS5B570n-Con1) was measured as the incorporation of radiolabeled nucleotide monophosphates into acid insoluble RNA products. Unincorporated radiolabeled substrate was removed by filtration and scintillant was added to the washed and dried filter plate containing radiolabeled RNA product. The amount of RNA product generated by NS5B570-Con1 at the end of the reaction was directly proportional to the amount of light emitted by the scintillant.
The N-terminal 6-histidine tagged HCV polymerase, derived from HCV Con1 strain, genotype 1b (NS5B570n-Con1) contains a 21 amino acid deletion at the C-terminus relative to the full-length HCV polymerase and was purified from E. coli strain BL21(DE) pLysS. The construct, containing the coding sequence of HCV NS5B Con1 (GenBank accession number AJ242654) was inserted into the plasmid construct pET17b, downstream of a T7 promoter expression cassette and transformed into E. coli. A single colony was grown overnight as a starter culture and later used inoculate 10 L of LB media supplemented with 100 μg/mL ampicillin at 37° C. Protein expression was induced by the addition of 0.25 mM isopropyl-β-D-thiogalactopyranoside (IPTG) when optical density at […] of the culture was between 0.6 and 0.8 and cells were harvested after 16 to 18 h at 30° C. NS5B570n-Con1 was purified to homogeneity using a three-step protocol including subsequent column chromatography on Ni-NTA, SP-Sepharose HP and Superdex 75 resins.
Each 50 μl enzymatic reaction contained 20 nM RNA template derived from the complementary sequence of the Internal Ribosome Entry Site (cIRES), 20 nM NS5B570n-Con1 enzyme, 0.5 μCi of tritiated UTP (Perkin Elmer catalog no. TRK-412; specific activity: 30 to 60 Ci/mmol; stock solution concentration from 7.5×10^-5 M to 20.6×10^-6 M), 1 μM each ATP, CTP, and GTP, 40 mM Tris-HCl pH 8.0, 40 mM NaCl, 4 mM DTT (dithiothreitol), 4 mM MgCl2, and 5 μl of compound serial diluted in DMSO. Reaction mixtures were assembled in 96-well filter plates (cat #MADVN0B, Millipore Co.) and incubated for 2 h at 30° C. Reactions were stopped by addition of 10% final (v/v) trichloroacetic acid and incubated for 40 min at 4° C. Reactions were filtered, washed with 8 reaction volumes of 10% (v/v) trichloroacetic acetic acid, 4 reaction volumes of 70% (v/v) ethanol, air dried, and 25 μl of scintillant (Microscint 20, Perkin-Elmer) was added to each reaction well.
The amount of light emitted from the scintillant was converted to counts per minute (CPM) on a Topcount® plate reader (Perkin-Elmer, Energy Range: Low, Efficiency Mode: Normal, Count Time: 1 min, Background Subtract: none, Cross talk reduction: Off).
Data was analyzed in Excel® (Microsoft®) and ActivityBase® (Idbs®). The reaction in the absence of enzyme was used to determine the background signal, which was subtracted from the enzymatic reactions. Positive control reactions were performed in the absence of compound, from which the background corrected activity was set as 100% polymerase activity. All data was expressed as a percentage of the positive control. The compound concentration at which the enzyme-catalyzed rate of RNA synthesis was reduced by 50% (IC50) was calculated by fitting
[formula] equation (i) to the data. where “Y” corresponds to the relative enzyme activity (in %), “% Min” is the residual relative activity at saturating compound concentration, “% Max” is the relative maximum enzymatic activity, “X” corresponds to the compound concentration, and “S” is the Hill coefficient (or slope).

SMILES | IC50 [1] [nM] | melting point [°C]
COc1cc(C(=O)N2CCN(C(C)=O)CC2)c(-c2ccc[nH]c2=O)cc1C(C)(C)C [Compound I-46] | 615 | 206 to 208
COc1cc(CNC(=O)c2ccc(NS(C)(=O)=O)cc2)c(-c2ccc[nH]c2=O)cc1C(C)(C)C [Compound I-43, N-[4-tert-butyl-5-methoxy-2-(2-oxo-1,2-dihydro-pyridin-3-yl)-benzyl]-4-methanesulfonylamino-benzamide] | 50 | 175 to 180
COc1cc(CN2C(=O)CC(C)(C)CC2=O)c(-c2ccc[nH]c2=O)cc1C(C)(C)C [Compound I-88] | 52 | > 300
COc1cc(CN(CC2CCN(C(C)=O)C2)S(C)(=O)=O)c(-c2ccc[nH]c2=O)cc1C(C)(C)C (stereo not drawn) [Compound I-48, N-(1-acetyl-pyrrolidin-3-ylmethyl)-N-[4-tert-butyl-5-methoxy-2-(2-oxo-1,2-dihydro-pyridin-3-yl)-benzyl]-methanesulfonamide] | 84 | 196 to 198
CCOC(=O)c1cc(OC)c(C(C)(C)C)cc1-c1ccc[nH]c1=O [Compound I-54, 4-tert-Butyl-5-methoxy-2-(2-oxo-1,2-dihydro-pyridin-3-yl)-benzoic acid ethyl ester] | 39 | 214 to 215
COc1cc(C(=O)N2CCS(=O)(=O)CC2)c(-c2ccc[nH]c2=O)cc1C(C)(C)C [Compound I-51] | 552 | 252 to 254
COc1cc(C(=O)N2CCC(CO)C2)c(-c2ccc[nH]c2=O)cc1C(C)(C)C (stereo not drawn) [Compound I-73] | 1610 | 201 to 203
CC(=O)Nc1ccc(C(C)(C)C)cc1-c1ccc[nH]c1=O [Compound I-8, N-[4-tert-butyl-2-(2-oxo-1,2-dihydro-pyridin-3-yl)-phenyl]-acetamide] | 8560 | 259 to 260
COc1cc(CN(CC2CCNC2)S(C)(=O)=O)c(-c2ccc[nH]c2=O)cc1C(C)(C)C (stereo not drawn) [Compound I-31, N-[4-tert-Butyl-5-methoxy-2-(2-oxo-1,2-dihydro-pyridin-3-yl)-benzyl]-N-pyrrolidin-3-ylmethyl-methanesulfonamide] | 97 | 158 to 160
COc1cc(CNS(=O)(=O)c2ccccc2Cl)c(-c2ccc[nH]c2=O)cc1C(C)(C)C [Compound I-87] | 358 | 231 to 232
COc1cc(CN2C(=O)CCC2=O)c(-c2ccc[nH]c2=O)cc1C(C)(C)C [Compound I-29] | 68 | 112.2 to 124.9
COc1cc(CN2CCCCS2(=O)=O)c(-c2ccc[nH]c2=O)cc1C(C)(C)C [Compound I-16] | 35 | 225.8 to 226.1
COCCN1CCN(C(=O)c2cc(OC)c(C(C)(C)C)cc2-c2ccc[nH]c2=O)CC1 [Compound I-67] | 3690 | 179 to 181
COc1cc(CN2CCNS2(=O)=O)c(-c2ccc[nH]c2=O)cc1C(C)(C)C [Compound I-60, 3-[5-tert-Butyl-2-(1,1-dioxo-1λ^6-[1,2,5]thiadiazolidin-2-ylmethyl)-4-methoxy-phenyl]-1H-pyridin-2-on] | 23 | 230 to 231
COCCN(C)C(=O)c1cc(OC)c(C(C)(C)C)cc1-c1ccc[nH]c1=O [Compound I-47] | 1510 | 160 to 162
COc1cc(CN(C(C)C)S(C)(=O)=O)c(-c2ccc[nH]c2=O)cc1C(C)(C)C [Compound I-28] | 33 | 285 to 286
COc1cc(C(=O)O)c(-c2ccc[nH]c2=O)cc1C(C)(C)C [Compound I-4, 4-tert-Butyl-5-methoxy-2-(2-oxo-1,2-dihydro-pyridin-3-yl)-benzoic acid] | 27 | 244 to 245

SMILES | IC50 [1] [nM] | melting point [°C]
COc1cc(CN2C(=O)CC[C@H]2CO)c(-c2ccc[nH]c2=O)cc1C(C)(C)C [Compound I-72, 3-[5-tert-Butyl-2-((S)-2-hydroxymethyl-5-oxo-pyrrolidin-1-ylmethyl)-4-methoxy-phenyl]-1H-pyridin-2-one] | 77 | 146 to 148
COc1cc(C(=O)N2CC(O)C2)c(-c2ccc[nH]c2=O)cc1C(C)(C)C [Compound I-68] | 211 | 236 to 238
COc1cc(C(=O)N(C)Cc2ccc(F)cc2)c(-c2ccc[nH]c2=O)cc1C(C)(C)C [Compound I-77] | 611 | 218 to 220
COc1cc(CN(Cc2ccccc2)S(C)(=O)=O)c(-c2ccc[nH]c2=O)cc1C(C)(C)C [Compound I-26] | 145 | 229 to 230
COc1cc(CN2Cc3ccc(NS(C)(=O)=O)cc3C2=O)c(-c2ccc[nH]c2=O)cc1C(C)(C)C [Compound I-92] | 8 | 173 to 175
COc1cc(C(=O)N2CCC(C#N)CC2)c(-c2ccc[nH]c2=O)cc1C(C)(C)C [Compound I-56, 1-[4-tert-Butyl-5-methoxy-2-(2-oxo-1,2-dihydro-pyridin-3-yl)-benzoyl]-piperidine-4-carbonitrite] | 432 | 213 to 215
COc1cc(CN2CCN(C)S2(=O)=O)c(-c2ccc[nH]c2=O)cc1C(C)(C)C [Compound I-64, 3-[5-tert-Butyl-4-methoxy-2-(5-methyl-1,1-dioxo-1λ^6-[1,2,5]thiadiazolidin-2-ylmethyl)-phenyl]-1H-pyridin-2-one] | 60 | 253 to 255
COc1cc(CN2C(=O)CC[C@@H]2C(=O)O)c(-c2ccc[nH]c2=O)cc1C(C)(C)C [Compound I-71, (R)-1-[4-tert-Butyl-5-methoxy-2-(2-oxo-1,2-dihydro-pyridin-3-yl)-benzyl]-5-oxo-pyrrolidine-2-carboxylic acid] | 36 | 199 to 200
COc1cc(CNS(=O)(=O)Cc2ccccc2)c(-c2ccc[nH]c2=O)cc1C(C)(C)C [Compound I-20] | 211 | 249 to 250
COc1cc(CN2CCN(C(=O)OC(C)(C)C)S2(=O)=O)c(-c2ccc[nH]c2=O)cc1C(C)(C)C [Compound I-61] | 319 | 125 to 127
CC(C)(C)c1ccc(NS(C)(=O)=O)c(-c2ccc[nH]c2=O)c1 [Compound I-6, N-[4-tert-Butyl-2-(2-oxo-1,2-dihydro-pyridin-3-yl)-phenyl]-methane sulfonamide] | 3850 | 219.3 to 233.8
COc1cc(CN(C2CCNCC2)S(C)(=O)=O)c(-c2ccc[nH]c2=O)cc1C(C)(C)C [Compound I-57] | 57 | 205 to 208
COc1cc(C(=O)N(C)C)c(-c2ccc[nH]c2=O)cc1C(C)(C)C [Compound I-41] | 1680 | 208 to 210
COc1cc(CNC(=O)c2ccc(N)cc2)c(-c2ccc[nH]c2=O)cc1C(C)(C)C [Compound I-42, 4-Amino-N-[4-tert-butyl-5-methoxy-2-(2-oxo-1,2-dihydro-pyridin-3-yl)-benzyl]-benzamide] | 36 | 165 to 167
CCN(Cc1cc(OC)c(C(C)(C)C)cc1-c1ccc[nH]c1=O)S(C)(=O)=O [Compound I-27] | 44 | 245 to 246
COc1cc(C(C)NS(C)(=O)=O)c(-c2ccc[nH]c2=O)cc1C(C)(C)C (stereo not drawn) [Compound I-52, N-{1-[4-tert-butyl-5-methoxy-2-(2-oxo-1,2-dihydro-pyridin-3-yl)-phenyl]-ethyl}-methanesulfonamide] | 654 | 284 to 286
